{"source": "patent US9636338B2", "about": "“Phenyl-dihydropyridine derivatives as inhibitors of aldosterone synthase” (Hoffmann-La Roche Inc., priority 2013, dated 2017)", "key": {"CYP11B2 [1]": {"molecular_target": "T1, CYP11B2 (Homo sapiens (Human), UniProt P19099)", "T1 sequence (P19099 25-503)": "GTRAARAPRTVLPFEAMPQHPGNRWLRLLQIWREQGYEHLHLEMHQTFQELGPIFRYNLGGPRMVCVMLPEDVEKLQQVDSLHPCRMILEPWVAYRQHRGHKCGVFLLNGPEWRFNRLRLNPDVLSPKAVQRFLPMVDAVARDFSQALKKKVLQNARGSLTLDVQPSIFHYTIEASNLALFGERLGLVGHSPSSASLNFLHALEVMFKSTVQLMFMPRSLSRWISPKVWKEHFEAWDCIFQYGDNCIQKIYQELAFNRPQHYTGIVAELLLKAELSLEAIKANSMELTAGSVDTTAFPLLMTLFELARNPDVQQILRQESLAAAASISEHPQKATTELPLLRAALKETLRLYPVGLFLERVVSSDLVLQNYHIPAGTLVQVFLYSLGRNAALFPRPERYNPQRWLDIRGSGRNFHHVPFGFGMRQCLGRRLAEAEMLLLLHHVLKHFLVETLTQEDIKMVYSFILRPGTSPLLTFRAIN", "assay": "G-402 cellular enzyme assay, human CYP11B2 (aldosterone release, HTRF)", "format": "cell-based", "conditions": "G-402 cells expressing human CYP11B2; 1 μM Deoxycorticosterone", "excerpt": "(§1) Herein we identified the use of the G-402 cell line as a host cell to ectopically express (transiently or stably) enzymes of the CYP11 family. Specifically we developed stable G-402 cells expressing ectopically human CYP11B1, human CYP11B2, human CYP11A1, cynmolgus CYP11B1 or cynomolgus CYP11B2 enzyme activity. Importantly the identified cell line G-402 expresses co-factors (adrenodoxin and adrenodoxin reductase) important for the activity of the CYP11 family and no relevant enzyme activity of the CYP11 family (in comparison to H295R cells) was detected in these cells. Therefore the G-402 cell line is uniquely suited as a host cell for the ectopic expression of enzymes from the CYP11 family. G-402 cells can be obtained from ATCC (CRL-1440) and were originally derived from a renal leiomyoblastoma.\n(§2) The expression plasmids contains the ORF for either human/cyno CYP11B1 or CYP11B2 under the control of a suitable promoter (CMV-promoter) and a suitable resistance marker (neomycin). Using standard techniques the expression plasmid is transfected into G-402 cells and these cells are then selected for expressing the given resistance markers. Individual cell-clones are then selected and assessed for displaying the desired enzymatic activity using 11-Deoxycorticosterone (Cyp11B2) or 11-Deoxycortisol (Cyp11B1) as a substrate.\n(§3) G-402 cells expressing CYP11 constructs were established as described above and maintained in McCoy's 5a Medium Modified, ATCC Catalog No. 30-2007 containing 10% FCS and 400 μg/ml G418 (Geneticin) at 37° C. under an atmosphere of 5% CO2/95% air. Cellular enzyme assays were performed in DMEM/F12 medium containing 2.5% charcoal treated FCS and appropriate concentration of substrate (0.3-10 uM 11-Deoxycorticosterone, 11-Deoxycortisol or Corticosterone). For assaying enzymatic activity, cells were plated onto 96 well plates and incubated for 16 h. An aliquot of the supernatant is then transferred and analyzed for the concentration of the expected product (Aldosterone for CYP11B2; Cortisol for CYP11B1). The concentrations of these steroids can be determined using HTRF assays from CisBio analyzing either Aldosterone or Cortisol.\n(§4) Inhibition of the release of produced steroids can be used as a measure of the respective enzyme inhibition by test compounds added during the cellular enzyme assay. The dose dependent inhibition of enzymatic activity by a compound is calculated by means of plotting added inhibitor concentrations (x-axes) vs. measured steroid/product level (y-axes). The inhibition is then calculated by fitting the following 4-parameter sigmoidal function (Morgan-Mercer-Flodin (MMF) model) to the raw data points using the least squares method:\n(§5) [formula] wherein, A is the maximum y value, B is the EC50 factor determined using XLFit, C is the minimum y value and D is the slope value.\n(§6) EC50 values for compounds claimed herein were tested with the G402-based assay system described. Cyp11B2 enzyme activity was tested in presence of 1 μM Deoxycorticosterone and variable amounts of inhibitors; Cyp11B1 enzyme activity was tested in presence of 1 μM Deoxycortisol and variable amounts of inhibitors."}, "human CYP11B1": {"molecular_target": "human CYP11B1 (Homo sapiens (Human), UniProt P15538)", "sequence (P15538 25-503)": "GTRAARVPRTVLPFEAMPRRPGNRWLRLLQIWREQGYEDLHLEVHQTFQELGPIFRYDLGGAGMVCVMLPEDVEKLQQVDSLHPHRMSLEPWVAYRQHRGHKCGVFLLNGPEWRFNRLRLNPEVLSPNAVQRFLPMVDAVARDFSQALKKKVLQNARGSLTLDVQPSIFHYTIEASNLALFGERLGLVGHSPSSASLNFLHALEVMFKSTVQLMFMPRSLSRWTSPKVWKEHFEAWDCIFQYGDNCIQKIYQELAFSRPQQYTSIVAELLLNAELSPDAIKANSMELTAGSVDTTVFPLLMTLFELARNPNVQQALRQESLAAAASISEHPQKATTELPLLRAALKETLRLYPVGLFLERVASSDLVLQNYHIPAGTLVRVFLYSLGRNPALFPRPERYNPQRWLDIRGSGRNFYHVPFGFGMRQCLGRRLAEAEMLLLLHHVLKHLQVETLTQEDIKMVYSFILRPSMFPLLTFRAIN", "assay": "G-402 cellular enzyme assay, human CYP11B1 (cortisol release, HTRF)", "format": "cell-based", "conditions": "G-402 cells expressing human CYP11B1; 1 μM Deoxycortisol", "excerpt": "as §1, §2, §3, §4, §5, §6"}, "[2]": {"conditions": "rat CKD model, cited from earlier work; for plasma aldosterone: FAD286 4 weeks of treatment, spironolactone 4 and 8 weeks; for angiotensin II and salt-stimulated PAI-1 mRNA expression: aorta and heart"}, "CYP11B2 [3]": {"molecular_target": "T1, CYP11B2", "conditions": "patients with primary aldosteronism; oral; cited from earlier work"}}}
{"smiles": "OC1(c2ccccc2)CCc2cncc(-c3ccc(C(F)(F)F)cc3F)c21", "note": "(single isomer, unassigned; (-)) [Example 10, (−)-4-[2-Fluoro-4-(trifluoromethyl)phenyl]-5-phenyl-6,7-dihydrocyclopenta[c]pyridin-5-ol]", "values": [{"measurement": "EC50", "setting": "CYP11B2 [1]", "result": 0.063, "unit": "µM"}, {"measurement": "EC50", "setting": "human CYP11B1", "result": 8.13, "unit": "µM"}]}
{"smiles": "N#Cc1ccc([C@H]2CCCc3cncn32)cc1", "note": "[FAD286]", "values": [{"measurement": "plasma aldosterone", "setting": "[2]", "result": "reduced"}, {"measurement": "angiotensin II and salt-stimulated PAI-1 mRNA expression", "setting": "[2]", "result": "not FAD286 enhanced"}]}
{"smiles": "N#Cc1ccc([C@H]2CCc3cncn32)c(F)c1", "note": "[LCI699]", "values": [{"measurement": "blood pressure", "setting": "CYP11B2 [3]", "result": "mildly decreased"}, {"measurement": "circulating aldosterone levels", "setting": "CYP11B2 [3]", "result": "significantly lower"}, {"measurement": "hypokalemia", "setting": "CYP11B2 [3]", "result": "corrected"}]}
{"smiles": "CC(=O)S[C@@H]1CC2=CC(=O)CC[C@]2(C)[C@H]2CC[C@@]3(C)[C@@H](CC[C@@]34CCC(=O)O4)[C@H]12", "note": "[spironolactone]", "values": [{"measurement": "plasma aldosterone", "setting": "[2]", "result": "increased"}, {"measurement": "angiotensin II and salt-stimulated PAI-1 mRNA expression", "setting": "[2]", "result": "enhanced"}]}
